Here are results for two compounds from patent publication US12144791B2, “KRAS agonists, pharmaceutical compositions, and uses in managing cancer” (Emory University, priority 2019, dated 2024).

The test system of one assay is A549 and H157. The assay is described as follows: Annexin V/PI apoptosis, KRA-533 alone or with 3-MA. The format is cell-based, human. The note with it: 48 h, in combination with KRA-533. Here is the method:
To determine whether autophagy plays a role in apoptosis induced by KRA-533, apoptosis was measured by FACS analysis of Annexin V/PI staining following treatments of A549 and H157 with KRA533 alone or in combination with autophagy inhibitor 3-MA for 48 h.

Another assay deals with A549 and H157 cells. Description: Western blot of autophagy marker p62 with or without chloroquine. The format is cell-based, human. Particulars: 48 h, in combination with KRA-533. Here is the method: To assess whether the autophagy inhibitor regulates KRA-533-induced autophagy formation, A549 and H157 cells were treated with KRA-533 in the absence or presence of autophagy inhibitor chloroquine for 48 h, followed by Western blot analysis of the autophagy marker p62.
On the technique in general: A western blot detects proteins with antibodies after separation by electrophoresis.

For `Cn1cnc(N)c2ncnc1-2` [3-MA, 3-methyladenine], the “KRA-533-induced apoptosis, 3-MA added” value in the assay with A549 and H157 is “enhanced KRA-533-induced apoptosis”.
As for `CCN(CC)CCCC(C)Nc1ccnc2cc(Cl)ccc12` (centres unmarked) [chloroquine, reference compound], in the assay on A549 and H157 cells, the “p62 expression, chloroquine added to KRA-533” value is reported as “restored p62 expression by blocking KRA-533-induced p62 degradation”.
